Results on 37 compounds are retold here after paper PMC4111740, “Ligand-Based Pharmacophore Modeling and Virtual Screening for the Discovery of Novel 17β-Hydroxysteroid Dehydrogenase 2 Inhibitors” (Journal of Medicinal Chemistry, 2014).

The target in one experiment is T1, 17β-HSD2 (Homo sapiens, UniProt P37059).
T1 construct: expressed in transfected cells; host or cells: HEK-293 (transient, calcium phosphate), lysate
T1 sequence (P37059 1-387): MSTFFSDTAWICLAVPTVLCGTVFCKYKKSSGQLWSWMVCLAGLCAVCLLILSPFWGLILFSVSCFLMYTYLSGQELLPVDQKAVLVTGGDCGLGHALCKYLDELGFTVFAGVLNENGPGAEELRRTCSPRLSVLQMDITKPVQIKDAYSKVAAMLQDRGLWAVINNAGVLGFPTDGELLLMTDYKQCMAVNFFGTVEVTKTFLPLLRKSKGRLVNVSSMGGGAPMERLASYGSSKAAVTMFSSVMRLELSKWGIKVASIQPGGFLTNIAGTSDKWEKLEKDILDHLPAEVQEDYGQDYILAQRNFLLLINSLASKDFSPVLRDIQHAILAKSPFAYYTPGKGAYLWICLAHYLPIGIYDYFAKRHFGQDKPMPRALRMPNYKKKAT
Nature of the experiment: 17β-HSD2 activity in intact transfected HEK-293 cells. The experiment is classed as cell-based. The conditions noted are these: intact HEK-293 cells. The protocol: (§1) Human embryonic kidney cells (HEK-293) were cultivated in DMEM containing 4.5 g/L glucose, 10% fetal bovine serum, 100 U/mL penicillin, 0.1 mg/mL streptomycin, 1× MEM nonessential amino acids, and 10 mM HEPES buffer, pH 7.4. The cells were incubated at 37 °C until 80% confluency. The cells were transfected using the calcium phosphate method with expression plasmids for 17β-HSD2 and 17β-HSD3. After 24 h, the cells were trypsinized and seeded on poly-L-lysine-coated 96-well plates (15 000 cells/well).
(§2) The inhibitory activities were measured 24 h after seeding as follows: old medium was aspirated and replaced by 30 μL of charcoal-treated DMEM (cDMEM). Ten microliters of inhibitor dissolved in cDMEM into the respective concentration was added, and mixtures were preincubated at 37 °C for 20 min. 17β-HSD2 inhibitory activities were measured in the presence of 190 nM unlabeled estradiol and 10 nM radiolabeled estradiol. N-(3-Methoxyphenyl)-N-methyl-5-m-tolylthiophene-2-carboxamide (compound 19 in ref ([26])) was used as positive control. The reaction mixtures were incubated for 20 min, and the reactions were stopped by adding an excess of estradiol and estrone (1:1, 2 mM in methanol) to the mixture.
For the compound `O=C(CSc1nccc(O)n1)Nc1cccc2nsnc12` [Compound 15], the “17β-HSD2 inhibition in intact cells (in words)” value is “concentration-dependently inhibited 17β-HSD2”.
On the same count and under the same terms, next, `O=S(=O)(Nc1ccc(O)c(Cl)c1)c1ccc(F)cc1` [Compound 13]: “concentration-dependently inhibited 17β-HSD2”; `Cc1cc(C)c(OCC(=O)N/N=C/c2ccc(O)cc2O)c(Br)c1` [Compound 11]: “concentration-dependently inhibited 17β-HSD2”.

A further experiment has as its target T2, 17β-HSD3 (Homo sapiens, UniProt P37058).
T2 construct: expressed in transfected cells; host or cells: HEK-293 (transient, calcium phosphate), intact cells
T2 sequence (P37058 1-310): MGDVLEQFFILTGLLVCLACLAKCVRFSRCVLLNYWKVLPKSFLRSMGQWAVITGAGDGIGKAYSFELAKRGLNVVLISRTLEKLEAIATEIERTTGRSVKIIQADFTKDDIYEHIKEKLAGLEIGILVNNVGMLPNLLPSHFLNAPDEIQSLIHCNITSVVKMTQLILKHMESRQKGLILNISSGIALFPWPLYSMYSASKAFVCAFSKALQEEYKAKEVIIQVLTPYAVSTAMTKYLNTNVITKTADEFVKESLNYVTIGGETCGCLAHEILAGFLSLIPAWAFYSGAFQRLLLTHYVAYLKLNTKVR
The experiment in a line: 17β-HSD3 activity in intact transfected HEK-293 cells. The format is cell-based. The conditions noted are these: intact cells. Here is the method: as §1, §2
17β-HSD3 inhibitory activities were measured in the presence of 190 nM unlabeled androstenedione and 10 nM radiolabeled androstenedione. Benzophenone-1 was used as positive control. The reaction mixtures were incubated for 30 min, and the reactions were stopped by adding an excess of androstenedione and testosterone (1:1, 2 mM in methanol). The steroids were separated by TLC, followed by scintillation counting and calculation of substrate concentration. Data was obtained from three independent measurements.
With `O=S(=O)(Nc1ccc(O)c(Cl)c1)c1ccc(F)cc1` [Compound 13], the “17β-HSD3 inhibition (in words)” value is reported as “equipotent toward these two enzymes”.
On the same count and under the same terms, the same measure for `Cc1cc(C)c(S(=O)(=O)Nc2cccc(O)c2)cc1C` [Compound 16]: “weak 17β-HSD3 inhibitors”; for `Cc1cc(C)c(OCC(=O)N/N=C/c2ccc(O)cc2O)c(Br)c1` [Compound 11]: “more active against 17β-HSD3 than 17β-HSD2”.

Still in this experiment, the particulars now being: rest activity at 20 μM, Table 3.
For `O=S(=O)(Nc1cccc(O)c1)c1ccc(Br)cc1` [Compound 21], the “17β-HSD3 intact inhibition class (n.i.)” value was “n.i”.
The same measure, in the same setting: the same measure for `Cc1ccc(NS(=O)(=O)c2cccc(Br)c2)cc1O` [Compound 24]: “n.i”.

The next experiment has as its target T1, 17β-HSD2. Nature of the experiment: 17β-HSD2 activity in lysates of transfected HEK-293 cells (cell-free, radiolabeled estradiol). The conditions noted are these: Table S2, virtual screening hits, tested at 20 μM in lysates. The experiment is classed as biochemical. The protocol:
Next, the 17β-HSD2 inhibitory activities of the chosen hits were evaluated in a cell-free assay. The activities were first determined at an inhibitor concentration of 20 μM using lysates of transfected HEK-293 cells. In all experiments, vehicle was included as negative control and N-(3-methoxyphenyl)-N-methyl-5-m-tolylthiophene-2-carboxamide (compound 19 from ref ([26])) as positive control.
HEK-293 cells were transfected by the calcium phosphate precipitation method with plasmids for human 17β-HSD1, 17β-HSD2, or 11β-HSD2. Cells were cultivated for 48 h, washed with phosphate-buffered saline, and centrifuged for 4 min at 150g. After removal of the supernatants, cell pellets were snap frozen in dry ice and stored at −80 °C until further use.
Lysates of human embryonic kidney cells (HEK-293) expressing either 17β-HSD1 or 17β-HSD2 were incubated for 10 min at 37 °C in TS2 buffer in a final volume of 22 μL containing either solvent (0.2% DMSO/chloroform) or the inhibitor at the respective concentration. N-(3-Methoxyphenyl)-N-methyl-5-m-tolylthiophene-2-carboxamide (compound 19 in ref ([26])) and apigenin[50] were used as positive controls for 17β-HSD1 and 17β-HSD2, respectively, in all experiments. 17β-HSD1 activity was measured in the presence of 190 nM unlabeled estrone, 10 nM radiolabeled estrone, and 500 μM NADPH. In contrast, 17β-HSD2 activity was determined in the presence of 190 nM unlabeled estradiol, 10 nM radiolabeled estradiol, and 500 μM NAD^+. Reactions were stopped after 10 min by adding an excess of unlabeled estradiol and estrone (1:1, 2 mM in methanol). Possible promiscuous enzyme inhibition by aggregate formation of the chemicals was excluded by measuring the inhibition of the enzyme activity by the compounds in the presence of 0.1% Triton X-100.[36] […] To exclude irreversible inhibition by the compounds investigated,[35] cell lysates were preincubated with the compounds for 0, 10, and 30 min, respectively, followed by measurement of the enzyme activity. […] The steroids were separated by TLC, followed by scintillation counting and calculation of substrate concentration. Data were collected from at least three independent measurements.
Consider `Cc1ccccc1/C=N/NC(=O)Cn1nnc2ccccc21` [AK-968/11367105], for which the “17β-HSD2 Activity (in words)” value is given as “Inactive”.
On the same count and under the same terms, the same measure for `Oc1ccc(-c2cn3cc(C(F)(F)F)ccc3n2)cc1` [AQ-776/42801516]: “Inactive”.
On the same count and under the same terms, next, `O=C(COc1ccc(-c2ccccc2)cc1)Nc1ccccc1C(=O)NC1CCCCC1` [AN-329/42613159]: “Inactive”; `COC(=O)c1cc(NC(=O)c2ccc(OC)cc2)ccc1O` [AN-652/43163172]: “Inactive”.
As for `COc1cc(C=Nc2ccc(OC(F)(F)F)cc2)ccc1O` [AN-329/11450193], the “17β-HSD2 Activity (in words)” value is “Inactive”.
Same read-out and setting: the same measure for `COc1cc(C(=O)Nc2cc(C(F)(F)F)ccc2N2CCOCC2)ccc1O` [AP-906/41927951]: “Inactive”.
On to `Oc1cccc(C(O)CNCc2ccncc2)c1` (stereo not shown) [AN-465/42246299], for which the “17β-HSD2 Activity (in words)” value is reported as “Inactive”.
Still for that read-out and setting: the same measure for `COc1ccccc1NCC(=O)N/N=C/c1sccc1C` [AN-329/11413636]: “Inactive”; for `COc1ccccc1NC(=O)CCC(=O)OC(C)C(=O)c1ccccc1` (stereo not shown) [AG-690/15435864]: “Inactive”; for `CN(C)Cc1ccccc1Sc1ccc(O)cc1O` [AE-641/30109032]: “Inactive”.
`CCn1c(Cc2ccccc2)nnc1SCC(=O)Nc1ccccc1OC` [AG-690/40750820]: the “17β-HSD2 Activity (in words)” value was “Inactive”.
The same measure, in the same setting: next, `CCCC(=O)Nc1ccc(C(=O)NCc2ccc(OC)cc2)cc1` [AJ-292/42647512]: “Inactive”; `O=C(Cn1nnc2ccccc21)c1ccc(-c2ccccc2)cc1` [AK-918/11592002]: “Inactive”.
On the same count and under the same terms, the same measure for `COc1ccc(OC)c(NC(=O)C(C)Oc2ccc(-c3ccccc3)cc2)c1` (stereo not shown) [AN-329/42958201]: “Inactive”; for `O=C(COC(=O)c1ccc2c(c1)C(=O)N(c1cccc(O)c1)C2=O)c1ccccc1` [AK-918/37182008]: “Inactive”.
The same measure, in the same setting: the same measure for `O=C(CSc1ccccc1)Nc1ccc(C(=O)Nc2ccc(O)cc2)cc1` [AN-979/42723474]: “Inactive”; for `COc1ccccc1NC(=O)COc1ccc(/C=c2/sc3n(c2=O)CCN=3)cc1` [AH-487/15020191]: “Inactive”; for `O=C(Cn1nnc2ccccc21)N/N=C/c1ccccc1F` [AG-205/07947037]: “Inactive”.
For the compound `O=C(Nc1ccc(O)cc1)c1ccc2c(c1)C(=O)N(Cc1ccco1)C2=O` [AN-979/41971109], the “17β-HSD2 Activity (in words)” value is recorded as “Inactive”.
Same read-out and setting: next, `COc1ccc(C(=O)COC(=O)c2ccc(O)cc2)cc1` [AK-918/12108002]: “Inactive”.

Staying with this experiment, now noted: relative to compound 12.
In the case of `O=C(CSc1nccc(O)n1)Nc1cccc2nsnc12` [Compound 15], the “less potent than the most active hit (17β-HSD2)” value amounted to 5 fold.

The next experiment concerns 17β-HSD2.
Experiment: not given
The conditions noted are these: Table S1; ref SI 1, 2, 4; read-out: IC50 17β-HSD2 (test set); cited from earlier work.
Turning to `COc1cccc(-c2ccc(C(=O)N(C)Cc3cccc(O)c3)s2)c1F` [Compound 6], the IC50 was 61 nM.
For `CN1C(=O)C[C@H](c2ccccc2F)[C@@H]1[C@H](O)c1ccc(-c2ccccc2)s1` [Compound 8], the IC50 is 10 nM.
On to `CN1C(=O)C[C@H](c2ccccc2)[C@@H]1[C@H](O)c1ccc(-c2cccnc2)s1` [Compound 3], for which the IC50 is 50 nM.
For the compound `COc1ccc(-c2ccc(C(=O)N(C)Cc3cccc(O)c3)s2)cc1` [Compound 7], the half-maximal inhibitory concentration (IC50) was 161 nM.
As for `Cc1cccc(-c2ccc(C(=O)N(C)Cc3cccc(O)c3)s2)c1` [Compound 2], the IC50 was 164 nM.
As to `Oc1ccc(-c2ccc3c(O)cccc3c2)cc1` [Compound 1], the 50% inhibitory concentration (IC50) is 302 nM.

Staying with this experiment, now noted: Table S1; ref SI 3; read-out: IC50 17β-HSD2 (test set); cited from earlier work.
In the case of `Oc1cccc(-c2ccnc(-c3ccc(Cl)s3)c2)c1` [Compound 4], the IC50 was 470 nM.

The same experiment, now with this note: at 1 µM, Table S1; ref SI 1, 2, 3, 5, 6; cited from earlier work.
Consider `Oc1cccc(-c2ccccc2)c1` [580-51-8], for which the “17β-HSD2 enzyme inhibition (test set)” value is given as < 10%.
As to `CS(=O)(=O)Nc1ccc(-c2ccc(O)cc2)cc1` [319015-65-1], the “17β-HSD2 enzyme inhibition (test set)” value is listed as < 10%.
For the compound `CC(=O)Nc1cccc(-c2ccc(O)cc2)c1` [462660-26-0], the “17β-HSD2 enzyme inhibition (test set)” value was < 10%.

Staying with this experiment, now noted: at 10 µM, Table S1; ref SI 7, 10; cited from earlier work.
`C[C@]12CC[C@@H]3c4ccc(O)cc4C(=O)C[C@H]3[C@@H]1CCC2=O` [1476-34-2]: the “17β-HSD2 enzyme inhibition (test set)” value is < 10%.
